Results as given in ChEMBL document CHEMBL1201862, “PubChem BioAssay data set” (2004).
“And” between values parts separate entries of the source, which are not always exact repeats. Equal values may be shown once. The source made the active and inactive calls.

Assays:
Cytochrome P450 1A2 = target: T1, Cytochrome P450 1A2 (Homo sapiens, UniProt P05177);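 further: PubChem cytochrome P450 panel assay, CYP1A2 panel member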
T1 sequence (P05177 whole entry): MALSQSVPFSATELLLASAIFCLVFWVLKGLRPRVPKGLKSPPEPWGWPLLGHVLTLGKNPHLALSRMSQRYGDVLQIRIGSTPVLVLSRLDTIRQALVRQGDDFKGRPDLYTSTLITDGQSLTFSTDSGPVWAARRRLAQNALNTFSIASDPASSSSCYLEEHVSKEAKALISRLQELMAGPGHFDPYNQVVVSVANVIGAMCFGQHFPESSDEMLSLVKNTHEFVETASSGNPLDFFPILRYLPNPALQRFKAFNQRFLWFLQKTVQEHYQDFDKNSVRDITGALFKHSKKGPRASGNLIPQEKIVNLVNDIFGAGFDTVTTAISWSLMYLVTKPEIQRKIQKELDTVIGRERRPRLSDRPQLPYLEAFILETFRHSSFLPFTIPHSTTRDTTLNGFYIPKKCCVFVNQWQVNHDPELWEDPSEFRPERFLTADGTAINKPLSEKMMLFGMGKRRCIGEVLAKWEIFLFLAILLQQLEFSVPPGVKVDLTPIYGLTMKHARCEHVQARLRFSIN

Cytochrome P450 3A4 = Cytochrome P450 3A4 (Homo sapiens, UniProt P08684);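 further: CYP3A4 tested as one member of a cytochrome P450 panel screen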
Cytochrome P450 3A4, sequence (P08684 whole entry): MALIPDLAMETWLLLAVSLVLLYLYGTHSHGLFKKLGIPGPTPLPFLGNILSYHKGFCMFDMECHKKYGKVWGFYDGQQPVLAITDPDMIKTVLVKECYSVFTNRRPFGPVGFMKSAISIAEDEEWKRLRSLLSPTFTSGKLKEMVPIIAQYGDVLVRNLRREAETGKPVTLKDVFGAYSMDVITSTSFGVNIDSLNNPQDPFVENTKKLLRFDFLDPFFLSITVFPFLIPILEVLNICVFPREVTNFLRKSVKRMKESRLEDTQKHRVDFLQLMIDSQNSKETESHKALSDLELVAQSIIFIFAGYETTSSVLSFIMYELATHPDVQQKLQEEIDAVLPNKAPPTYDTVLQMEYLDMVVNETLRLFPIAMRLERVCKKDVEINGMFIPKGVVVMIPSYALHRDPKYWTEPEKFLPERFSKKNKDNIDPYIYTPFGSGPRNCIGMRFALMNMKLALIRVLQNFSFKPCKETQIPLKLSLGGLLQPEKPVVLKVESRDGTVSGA

Cytochrome P450 2C19 = Cytochrome P450 2C19 (Homo sapiens, UniProt P33261); test: Cytochrome panel assay with activity outcomes. Panel member name: p450-cyp2c19 Compounds with AC50 equal or less than 10 uM are considered active; type: functional
Cytochrome P450 2C19, sequence (P33261 whole entry): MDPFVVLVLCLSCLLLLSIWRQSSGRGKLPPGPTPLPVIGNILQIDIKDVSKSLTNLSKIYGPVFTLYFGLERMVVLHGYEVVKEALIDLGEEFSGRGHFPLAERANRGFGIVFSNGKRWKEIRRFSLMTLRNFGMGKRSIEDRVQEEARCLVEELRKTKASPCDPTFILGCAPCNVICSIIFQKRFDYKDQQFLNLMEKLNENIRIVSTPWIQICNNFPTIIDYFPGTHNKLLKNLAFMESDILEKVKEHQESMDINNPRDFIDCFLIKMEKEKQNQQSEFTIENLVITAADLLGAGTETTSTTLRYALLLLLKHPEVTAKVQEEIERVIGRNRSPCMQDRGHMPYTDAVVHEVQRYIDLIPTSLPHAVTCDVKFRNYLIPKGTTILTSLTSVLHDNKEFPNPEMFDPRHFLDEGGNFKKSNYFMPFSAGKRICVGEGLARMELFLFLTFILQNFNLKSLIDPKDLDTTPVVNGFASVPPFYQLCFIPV

Cytochrome P450 2C9 = Cytochrome P450 2C9 (Homo sapiens, UniProt P11712)
Cytochrome P450 2C9, sequence (P11712 whole entry): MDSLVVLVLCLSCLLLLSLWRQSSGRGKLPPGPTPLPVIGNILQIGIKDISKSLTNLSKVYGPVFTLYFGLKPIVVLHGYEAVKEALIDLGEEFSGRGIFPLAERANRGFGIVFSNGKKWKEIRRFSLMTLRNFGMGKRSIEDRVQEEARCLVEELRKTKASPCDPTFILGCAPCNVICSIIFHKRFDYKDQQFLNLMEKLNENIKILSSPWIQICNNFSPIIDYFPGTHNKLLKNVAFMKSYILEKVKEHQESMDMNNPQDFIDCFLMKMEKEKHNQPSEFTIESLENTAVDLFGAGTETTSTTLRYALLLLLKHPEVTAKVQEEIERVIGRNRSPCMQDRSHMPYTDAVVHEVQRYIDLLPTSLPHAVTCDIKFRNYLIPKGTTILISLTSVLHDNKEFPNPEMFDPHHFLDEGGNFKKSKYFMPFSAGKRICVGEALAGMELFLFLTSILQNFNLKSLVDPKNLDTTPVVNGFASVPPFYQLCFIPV

[1] = Luminescence Cell-Based Dose Confirmation HTS to Identify Activators of 5'UTR Stem-Loop Driven Alpha-Synuclein mRNA Translation in H4 Neuroglioblastoma Cells. [Related pubchem assays: 1829 (Project Summary), 1814 (Primary HTS)]; type: functional
[2] = Luminescence Cell-Based Dose Response HTS to Identify Activators of Luciferase Translation or Activity in H4 […] Cells. [Related pubchem assays: 1829 (Project Summary), 1814 (Primary HTS)]; type: functional
H4 = test: Luminescence Cell-Based Dose Response HTS to Identify Activators of 5'UTR Stem-Loop Driven Prion Protein mRNA Translation in H4 Neuroglioblastoma Cells. [Related pubchem assays: 1829 (Project Summary), 1814 (Primary HTS)]; type: functional; details: Homo sapiens
[3] = non-specific 3'UTR reporter inhibition in Clone20-Shn3RL – cell-based, Renilla luciferase, cherry-picked, counter-screen for Shn3 inhibitor project, dose response (AID 624133); type: functional
[4] = viability of uninfected HEp-2 cells – cell-based, HTS, cytotoxicity control for RSV inhibitor project, dose response (AID 2410); type: functional; details: human respiratory syncytial virus
[5] = target: FAD-linked sulfhydryl oxidase ALR (Homo sapiens, UniProt P55789); test: ALR-catalysed DTT oxidation blockers – biochemical, H2O2 detection, luminescence, cherry-pick, dose response (AID 493248)
FAD-linked sulfhydryl oxidase ALR, sequence (P55789 whole entry): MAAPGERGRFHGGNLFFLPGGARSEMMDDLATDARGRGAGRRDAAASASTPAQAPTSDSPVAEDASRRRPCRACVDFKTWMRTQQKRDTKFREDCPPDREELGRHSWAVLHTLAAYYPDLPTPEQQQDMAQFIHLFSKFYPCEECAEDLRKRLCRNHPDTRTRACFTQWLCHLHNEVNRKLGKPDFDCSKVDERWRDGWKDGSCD

[6] = Luminescence Cell-Based Dose Response HTS to Identify Inhibitors of 5'UTR Stem-Loop Driven Prion Protein mRNA Translation in H4 Neuroglioblastoma Cells. [Related pubchem assays: 1827 (Project Summary), 1813 (Primary HTS)]; type: functional
[7] = alpha-synuclein stem-loop luciferase translation blockers – H4 neuroglioma cells, luminescence, confirmation (AID 1988); type: functional, cell-based
[8] = luciferase reporter signal suppression in cells – H4 neuroglioma cells, luminescence, dose response (AID 1990); type: functional, cell-based

Row | SMILES | AC50 (Cytochrome P450 1A2) | EC50 [1] | EC50 [2] | EC50 (H4) | also measured
1 | Cc1ccc(C(=O)NC(=S)N2CC(C)OC(C)C2)cc1[N+](=O)[O-] (stereo not drawn) | 15.8 µM (inconclusive) |  |  |  | AC50 (Cytochrome P450 3A4): 22.4 µM (inconclusive); AC50 (Cytochrome P450 2C19): inconclusive; AC50 (Cytochrome P450 2C9): 14.1 µM (inconclusive)
2 | COC(=O)c1ccc(S(=O)(=O)N2CCc3ccccc32)cc1 |  | > 120 µM (not active) | > 60 µM (not active) | > 120 µM (not active) | 
3 | C=CCNC(=O)/C(=C\c1ccc2c(c1)OCO2)NC(=O)c1ccc(Br)cc1 | 14.1 µM (inconclusive) |  |  |  | AC50 (Cytochrome P450 2C9): 5.62 µM (inconclusive)
4 | CC(C)N1CCN(Cc2c[nH]c3ccccc23)CC1CCO (stereo not drawn) |  |  |  |  | AC50 [3]: 28.6 µM (active)
5 | Cc1cccc(-n2c(N)c(C(=O)NCCN3CCOCC3)c3nc4ccccc4nc32)c1 |  | > 120 µM (not active) | > 120 µM (not active) | > 120 µM (not active) | 
6 | COc1ccc(N(C)C(=O)c2cc3c(s2)-c2ccccc2OC3)c(OC)c1 |  |  |  |  | CC50 [4]: 48.3 µM (active)
7 | CN1CCC(c2c[nH]c3ccc(O)cc23)CC1 | 31.6 µM (inconclusive) |  |  |  | AC50 (Cytochrome P450 3A4): 15.8 µM (inconclusive) and 31.6 µM (inconclusive)
8 | N#Cc1cc2cc3c(cc2nc1N1CCCCC1)OCCO3 |  | 0.139 µM (active) | 1.82 µM (active) | 1.42 µM (active) | 
9 | Cc1cc(C)nc(Nc2n[nH]c(-c3ccc(N)cc3)n2)n1 |  |  |  |  | AC50 [5]: 0.311 µM (active)
10 | O=C(CCN1C[C@H]2CC[C@H](CC2)C1)c1cccs1 | 5.01 µM (inconclusive) |  |  |  | 
11 | N#CC1CCCc2c1[nH]c1ccc([N+](=O)[O-])cc21 (stereo not drawn) |  |  |  |  | EC50 [6]: > 120 µM (not active); EC50 [7]: 24.5 µM (active); CC50 [4]: 27.8 µM (active); EC50 [8]: 11.7 µM (active)
12 | CN1CCc2nc(SCC(=O)OC(C)(C)C)c(C#N)cc2C1 |  | 20.8 µM (active) | 15.4 µM (active) | 108 µM (active) | 
13 | COc1ccc(N2CCN(C(=O)Cc3ccc(C)cc3)CC2)cc1 |  |  |  |  | AC50 [5]: 5.48 µM (active)
14 | CCCCN1CC(=O)C(c2nc3ccccc3s2)=C1N |  | 13.8 µM (active) | 30.8 µM (active) | > 120 µM (not active) | 
15 | Cn1c(=O)c(-c2cccs2)nc2cnc(N3CCOCC3)nc21 | 5.01 µM (inconclusive) |  |  |  | 
16 | CC(=O)Nc1ccc(S(=O)(=O)N2CCC(c3nc4cc(C)ccc4[nH]3)CC2)cc1 |  |  |  |  | CC50 [4]: 15.4 µM (active)
17 | C=CCN1C[C@H](C)N([C@@H](c2ccccc2)c2ccc(C(=O)N(CC)CC)cc2)C[C@H]1C | 31.6 µM (inconclusive) |  |  |  | AC50 (Cytochrome P450 3A4): 2.51 µM (inconclusive); AC50 (Cytochrome P450 2C19; read-out: AC50): 63.1 nM (inconclusive); AC50 (Cytochrome P450 2C9): 31.6 µM (inconclusive)
18 | Cc1ccc(C(=O)C2=C(O)C(=O)N(Cc3cccnc3)C2c2ccccc2[N+](=O)[O-])cc1 (stereo not drawn) |  | 30.1 µM (active) | 14.9 µM (active) | > 120 µM (not active) | 
19 | Nc1cccc(OCc2nc(N)nc(N)c2-c2ccc(Cl)cc2)c1 | 0.158 µM (inconclusive) |  |  |  | 
20 | CC(CN1CCN(c2ccccc2)CC1)c1ccccc1 (stereo not drawn) |  |  |  |  | AC50 [5]: 66.9 µM (active)
21 | Cc1cn(CCC(=O)Nc2ccc(N3CCOCC3)cc2)c2ccccc12 |  | 11.5 µM (active) | 16.1 µM (active) | 13.9 µM (active) | 
22 | Fc1cccc2sc(Nc3nc4ccccc4s3)nc12 |  | 0.106 µM (active) | 4.21 µM (active) | 1.58 µM (active) | 
23 | CCC/C=C(\CCC)C(NC(=O)c1ccc(C(F)(F)F)cc1)c1ccccc1 (stereo not drawn) | 25.1 µM (inconclusive) |  |  |  | AC50 (Cytochrome P450 2C9): 3.16 µM (inconclusive)
24 | Cc1cc(NS(=O)(=O)c2ccccc2)c(C)c(Cl)c1O |  |  |  |  | CC50 [4]: 8.98 µM (active)
25 | Cc1cc(C)n(CCC(=O)N2CCCC(Nc3ccc(F)cc3)C2)n1 (stereo not drawn) |  |  |  |  | AC50 [5]: 33.3 µM (active)
26 | Cc1ccc(S(=O)(=O)Oc2cc(S(=O)(=O)O)cc3cc(S(=O)(=O)O)cc(N)c23)cc1 | 2 µM (inconclusive) |  |  |  | 
27 | CCn1c2ccccc2c2cnc(/N=C/N(C)C)c(C#N)c21 |  |  |  |  | CC50 [4]: 37 µM (active)
28 | C/C(=N/OCC(=O)Nc1ccccc1)c1cccs1 |  | 13.4 µM (active) | 26.4 µM (active) | 16.8 µM (active) | 
